For data set [1], the system named is mutated LAR (LAR/K143G). Kind of data set: Conversion of 4β-(S-cysteinyl)-epicatechin to epicatechin by mutated LAR (negative control). It is filed as biochemical, Medicago truncatula. To be noted: 40 μM substrate, 50 μM NADPH, 5 μg protein, 1 h, room temperature. Here is the method:
The full length LAR cDNA was cloned into pMal-c5x vector (New England Biolab) at the XmnI and BamHI sites. Mutations, which convert the lysine 143 codon to a glycine codon, were introduced into LAR cDNA by over-lapping PCR. The expression constructs were transformed into E. coli strain Rosetta™ 2(DE3)pLysS (EMD Millipore) competent cells. Transformed bacteria were grown in LB medium supplemented with 0.2% glucose to OD 600 of 0.5, and IPTG was added at 0.3 mM to induce protein expression. Bacteria were harvested after 4 h induction. LAR proteins were purified with amylose resin (NEB, E8021) following the manufacturer's protocol. Briefly, bacteria were lysed by sonication at 4° C. in extraction buffer (20 mM Tris pH 7.0, 200 mM NaCl, 1 mM DTT, 1 mM PMSF). […]
The above analyses indicate that the 21 minute fraction above contains cysteine and glucuronic acid conjugates of epicatechin, as well as a glucoside conjugate of epicatechin cysteine. Of these compounds, epicatechin cysteine was determined to be the best candidate for being a substrate for LAR. […] The ethyl acetate extract was dried under vacuum, dissolved in 50 μL water and analyzed by UPLC/MS.
Reactions without NADPH or LAR, with NADP^+, and with mutated LAR (LAR/K143G) were run in parallel as negative controls. Reactions were analyzed by UPLC/MS in negative mode. […] Epicatechin-cysteine content was quantified by EIC. […]

Data set [2] can be described thus: DMACA reactivity. It is filed as physicochemical. The note with it: Five μL of 1 mM compound added to 200 mL 0.2% DMACA stain solution. On the procedure: Seeds of the lar mutant accumulated more than twice the level of 4β-(S-cysteinyl)-epicatechin than wild-type plants (FIGS. 14B and 14C), whereas none was detected in the anr mutant, and MYB5 over-expressing hairy roots accumulated more than three times the level of epicatechin-cysteine found in MYB14 over-expressing hairy roots. […] DMACA reactivity of epicatechin-cysteine was also measured. Five μL of 1 mM epicatechin or epicatechin-cysteine were added to 200 mL 0.2% DMACA stain solution. OD values of absorbance at 640 nm were measured as: Epicatechin=OD 0.71, Epicatechin-cysteine=OD 0.34, and Blank=OD 0.05. Epicatechin-cysteine reacted with DMACA reagent to produce a less intense blue color than epicatechin, consistent with the weak DMACA staining of lar mutant seeds.

Data set [3] concerns the target T1, LAR from Desmodium uncinatum (Desmodium uncinatum, UniProt Q84V83).
T1 sequence (Q84V83 1-382): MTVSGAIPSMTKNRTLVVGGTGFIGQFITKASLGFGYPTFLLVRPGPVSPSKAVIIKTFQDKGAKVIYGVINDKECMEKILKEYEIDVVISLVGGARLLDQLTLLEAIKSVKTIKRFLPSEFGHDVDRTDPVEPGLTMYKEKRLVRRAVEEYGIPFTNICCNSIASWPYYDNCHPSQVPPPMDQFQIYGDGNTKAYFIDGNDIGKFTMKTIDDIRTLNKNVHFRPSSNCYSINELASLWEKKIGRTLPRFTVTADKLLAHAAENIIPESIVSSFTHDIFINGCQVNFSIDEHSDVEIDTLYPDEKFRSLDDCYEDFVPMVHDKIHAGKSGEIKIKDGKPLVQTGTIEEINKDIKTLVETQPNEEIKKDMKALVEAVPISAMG
The note with it: Tanner et al. 2003; read-out: reported Km of LAR towards leucocyanidin; cited from earlier work.

In the case of `N[C@@H](CS[C@H]1c2c(O)cc(O)cc2O[C@H](c2ccc(O)c(O)c2)[C@@H]1O)C(=O)O` [4β-(S-cysteinyl)-epicatechin], in data set [1], the “activity of mutated LAR on substrate (epicatechin formation, UPLC/MS)” value is given as “no activity”. The “OD values of absorbance at 640 nm (DMACA reactivity)” value in data set [2] is listed as 0.34 OD.
As a reminder, the Km is the substrate concentration at which the rate is half of its maximum. For the compound `Oc1cc(O)c2c(c1)OC(c1ccc(O)c(O)c1)C(O)C2O` (stereo not drawn) [leucocyanidin], the Km in data set [3] is 6 µM.

(Values after US20190345505A1, “METHODS FOR REGULATING EXTRACTABLE PROANTHOCYANIDINS (PAS) IN PLANTS BY AFFECTING LEUCOANTHOCYANIDIN REDUCTASE (LAR)” (University of North Texas, priority 2016, published 2019).)
